Assay results published in the supplement of paper PMC10920090.

What was measured:
Details in all cases: 72 h
MDA-MB-231 [1] = test: drug sensitivity score (DSS), cell viability CellTiter-Glo; higher = more sensitive; extreme values may be limits of the assay
UT-SCC-24A [2] = test: drug sensitivity score (DSS), cytotoxicity CellTox Green; higher = more cytotoxic; extreme values may be limits of the assay
Procedure: (§1)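 Targeted FIMM drug screen of 23 compounds at 5 concentrations over a 10,000-fold range in 384-well plates, 1250 cells/well, 72 h at 37 °C. Read-outs were CellTiter-Glo viability and CellTox Green cytotoxicity, normalised to DMSO and benzethonium chloride controls and summarised as drug sensitivity score (DSS). Cells stably transduced with shScramble or one of two shPPFIA1 constructs (shPPFIA1_1 TRCN0000002969, shPPFIA1_2 TRCN0000342514).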

BT-474 [3] = test: as above
Procedure: as §1

MDA-MB-231 [4] = test: as above
UT-SCC-24A [5] = test: drug sensitivity score (DSS), cell viability CellTiter-Glo; higher = more sensitive; extreme values may be limits of the assay
Procedure: as §1

BT-474 [6] = test: as above
Procedure: as §1

| Compound | drug sensitivity score (MDA-MB-231 [1]; shRNA: shPPFIA1_1) [DSS] | drug sensitivity score (MDA-MB-231 [1]; shRNA: shScramble) [DSS] | drug sensitivity score (UT-SCC-24A [2]; shRNA: shPPFIA1_1) [DSS] | drug sensitivity score (UT-SCC-24A [2]; shRNA: shPPFIA1_2) [DSS] | drug sensitivity score (UT-SCC-24A [2]; shRNA: shScramble) [DSS] | drug sensitivity score (BT-474 [3]; shRNA: shPPFIA1_1) [DSS] | drug sensitivity score (BT-474 [3]; shRNA: shPPFIA1_2) [DSS] | drug sensitivity score (BT-474 [3]; shRNA: shScramble) [DSS] | drug sensitivity score (MDA-MB-231 [4]; shRNA: shPPFIA1_1) [DSS] | drug sensitivity score (MDA-MB-231 [4]; shRNA: shScramble) [DSS] | drug sensitivity score (UT-SCC-24A [5]; shRNA: shPPFIA1_1) [DSS] | drug sensitivity score (UT-SCC-24A [5]; shRNA: shPPFIA1_2) [DSS] | drug sensitivity score (UT-SCC-24A [5]; shRNA: shScramble) [DSS] | drug sensitivity score (BT-474 [6]; shRNA: shPPFIA1_1) [DSS] | drug sensitivity score (BT-474 [6]; shRNA: shPPFIA1_2) [DSS] | drug sensitivity score (BT-474 [6]; shRNA: shScramble) [DSS] |
| --- | --- | --- | --- | --- | --- | --- | --- | --- | --- | --- | --- | --- | --- | --- | --- | --- |
| COc1cc(C(=O)NC2CCN(C)CC2)c(F)cc1Nc1ncc2c(n1)N(C1CCCC1)CC(F)(F)C(=O)N2C [TAK-960] | 4.9 | 20.6 | 0 | 0 | 0 | 0 | 0 | 0 | 0 | 0.9 | 0 | 0 | 0 | 0 | 0 | 0 |
| O=C(Nc1ccc2[nH]nc(-c3ccncc3)c2c1)[C@@H]1CCN(CC(=O)N2CCN(c3ccc(-c4ncccn4)cc3)CC2)C1 | 2.1 | 10.8 | 21.7 | 21.1 | 11.6 | 0 | 0.2 | 0 | 6 | 10.9 | 21.3 | 20.5 | 17.3 | 0 | 0 | 0 |
| C[C@@H]1COC(Nc2ccc3ncnc(Nc4ccc(OCc5nccs5)c(Cl)c4)c3c2)=N1 [Varlitinib] | 1 | 21.3 | 10.3 | 10.1 | 4 | 3.1 | 4.5 | 3.9 | 0.2 | 0 | 10.7 | 11 | 9 | 8.2 | 9.3 | 10.7 |
| COc1cc2ncnc(Nc3ccc(F)c(Cl)c3)c2cc1OCCCN1CCOCC1 [Gefitinib] | 2.3 | 2.3 | 19.4 | 17.3 | 8.3 | 4.1 | 5.6 | 4.8 | 0 | 0 | 19.6 | 18.4 | 12.1 | 7.8 | 9.1 | 10.8 |
| C#Cc1cccc(Nc2ncnc3cc(OCCOC)c(OCCOC)cc23)c1 [Erlotinib] | 2.8 | 4 | 17.8 | 11.4 | 8.3 | 0.8 | 1.1 | 1.2 | 0 | 0 | 20.8 | 14 | 11.9 | 2.5 | 2.9 | 3.9 |
| CO[C@H]1C[C@@H]2CC[C@@H](C)[C@@](O)(O2)C(=O)C(=O)N2CCCC[C@H]2C(=O)O[C@H]([C@H](C)C[C@@H]2CC[C@@H](OC(=O)C(C)(CO)CO)[C@H](OC)C2)CC(=O)[C@H](C)/C=C(\C)[C@@H](O)[C@@H](OC)C(=O)[C@H](C)C[C@H](C)/C=C/C=C/C=C/1C [Temsirolimus] | 0 | 7.9 | 0 | 0 | 0 | 0 | 0 | 0 | 0 | 0 | 2.8 | 4.1 | 4.4 | 7.8 | 6.2 | 9.8 |
| CN[C@@H](C)C(=O)N[C@H]1CN(C(=O)CC(C)C)CC[C@H]2CC[C@@H](C(=O)NC(c3ccccc3)c3ccccc3)N2C1=O [AT-406] | 17 | 3.4 | 7.8 | 13.5 | 5.3 | 1.3 | 1.4 | 0.2 | 32.3 | 19.8 | 1 | 1.9 | 0 | 0 | 0 | 0 |
| COc1ccc(-c2ccc3ncc4c(c3c2)n(-c2ccc(N3CCNCC3)c(C(F)(F)F)c2)c(=O)n4C)cn1 [NVP-BGT226] | 0.8 | 17.3 | 7.9 | 6.5 | 7.8 | 2.8 | 6.2 | 4.8 | 0 | 6.4 | 19.4 | 20.4 | 20.7 | 9.6 | 11.3 | 14.2 |
| CCC1=C[C@@H]2CN(C1)Cc1c([nH]c3ccccc13)[C@@](C(=O)OC)(c1cc3c(cc1OC)N(C)[C@H]1[C@@](O)(C(=O)OC)[C@H](OC(C)=O)[C@]4(CC)C=CCN5CC[C@]31[C@@H]54)C2 [Vinorelbine] | 0 | 19.9 | 8.4 | 8.4 | 13.1 | 11.1 | 13.2 | 13.8 | 7.2 | 2.7 | 12 | 18 | 15.3 | 9.2 | 10 | 18.7 |
| CC(=O)Nc1cccc(-n2c(=O)n(C3CC3)c(=O)c3c(Nc4ccc(I)cc4F)n(C)c(=O)c(C)c32)c1 [Trametinib] | 0.7 | 12.4 | 18.9 | 18.4 | 7.8 | 0 | 0 | 0 | 5.3 | 12.5 | 19.6 | 18.5 | 15.4 | 0 | 0 | 0.1 |
| CC(=O)NCC(=O)N1[C@@H]2CC[C@H]1c1ccc(Nc3ncc(C(F)(F)F)c(NC4CCC4)n3)cc12 | 5.5 | 21.7 | 4.1 | 3.9 | 4.3 | 3 | 3.7 | 3.5 | 2.8 | 0 | 8 | 8.7 | 8.5 | 2.7 | 2.8 | 4.5 |
| CC(=O)O[C@@]12CO[C@@H]1C[C@H](O)[C@@]1(C)C(=O)[C@H](O)C3=C(C)[C@@H](OC(=O)[C@H](O)[C@@H](NC(=O)OC(C)(C)C)c4ccccc4)C[C@@](O)([C@@H](OC(=O)c4ccccc4)[C@H]21)C3(C)C [Docetaxel] | 1.3 | 16.8 | 16.2 | 15.2 | 20.1 | 20.1 | 20.5 | 20.9 | 7.3 | 8.7 | 17.3 | 18.8 | 18.7 | 16.1 | 16.8 | 20.6 |
| O=C(NOCCO)c1ccc2cncn2c1Nc1ccc(I)cc1F [GDC-0623] | 3.7 | 18.1 | 1.8 | 0 | 0.8 | 0 | 0 | 0 | 5.2 | 11.2 | 2 | 0 | 1.8 | 0 | 0 | 0 |
| CCOc1ccn(-c2ccc(F)cc2)c(=O)c1C(=O)Nc1ccc(Oc2ccnc(N)c2Cl)c(F)c1 | 0 | 21 | 0 | 0 | 0 | 0 | 0 | 0 | 0 | 0.9 | 0 | 0 | 0 | 0 | 0 | 0 |
| Cn1c(=O)n(-c2ccc(C(C)(C)C#N)cc2)c2c3cc(-c4cnc5ccccc5c4)ccc3ncc21 [Dactolisib] | 0 | 4.2 | 1.3 | 0.5 | 2.3 | 0 | 0 | 0 | 0 | 0 | 16.2 | 17 | 18 | 7.4 | 7.4 | 11 |
| CN(C)C/C=C/C(=O)Nc1cc2c(Nc3ccc(F)c(Cl)c3)ncnc2cc1O[C@H]1CCOC1 [Afatinib] | 0.2 | 1.4 | 20.4 | 19.8 | 12 | 7.4 | 8.7 | 7.9 | 0 | 0 | 18.5 | 18.1 | 13.4 | 13.2 | 13.3 | 16.2 |
| Cc1cc(C(=O)NOCCO)c(Nc2ccc(I)cc2F)n(C)c1=O [AZD-8330] | 5.5 | 21.8 | 28.4 | 27.6 | 14.2 | 0 | 0 | 0 | 15 | 20.3 | 30 | 27.6 | 23.9 | 0 | 0 | 0 |
| O=C(NC[C@H](O)CO)c1ccncc1Nc1ccc(I)cc1F [Pimasertib] | 2.4 | 12.4 | 28.5 | 23.5 | 15.6 | 0 | 0.2 | 0 | 6.2 | 11.7 | 25.6 | 23.4 | 20.5 | 0.1 | 0.5 | 0.4 |
